According to patent publication US20240140986A1, “SYNTHETIC URSOLIC ACID DERIVATIVES AND METHODS OF USE THEREOF” (REATA PHARMACEUTICALS, INC., priority 2021, published 2024):
Read-outs that look alike come from different tables or passages of the source.

Legend:
[1] = tested on: Nrf2 / ARE-dependent luciferase in AREc32 reporter cell line; experiment: AREc32 luciferase reporter activation (Nrf2 induction); type: cell-based, human; details: for EC (2-fold): Homo sapiens, Arec32; for Relative Avg AREc32 EC2X Relative to RTA402 (fold): ratio to RTA402
Method: Effect on Ludferase Reporter Activation. Nrf2 is a transcription factor that binds to the antioxidant response element (ARE) sequence in the promoter regions of its target genes. AREc32 reporter cell line (derived from human breast carcinoma MCF7 cells) was obtained was from CXR Bioscience Limited (Dundee, UK) and cultured in DMEM (low glucose) supplemented with 10% FBS, 1% penicillin/streptomycin, and 0.8 mg/ml Geneticin (G418). This cell line is stably transfected with a luciferase reporter gene under the transcriptional control of eight copies of the rat GSTA2 ARE sequence (5′-GTGACAAAGCA-3′) (Wang et al., 2006). Expression of Firefly luciferase from this reporter plasmid is controlled by binding of Nrf2 to these ARE sequences. Measurement of ARE-dependent luciferase activity allows quantitative assessment of Nrf2 induction. AREc32 cell line has previously been used in studies characterizing different Nrf2 activators (Dinkova-Kostova & Wang, 2011; Roubalová et al., 2016; Roubalová et al, 2017; Wu et al, 2012).
The effect of several compounds disclosed herein on luciferase reporter activation was assessed in the AREc32 reporter cell line (see Table 10 and Table 11). This cell line is derived from human breast carcinoma MCF-7 cells and is stably transfected with a luciferase reporter gene under the transcriptional control of eight copies of the antioxidant response element from the rat Gsta2 gene, an Nrf2 target gene (Frilling et al., 1990). AREc32 cells were plated in black 96-well plates in 200 μL media at 20,000 cells per well. Twenty-four hours after plating, cells were treated with vehicle (DMSO) or test compounds at concentrations ranging from 0.03 to 1000 nM for nineteen hours. Media was removed and 100 μL of 1:1 mixture of the One-Glo Luciferase assay reagent and culture medium was added to each well. After incubation for 5 min at room temperature, the luminescence signal was measured on a PHERAstar plate reader. The EC2X value was determined using Excel and GraphPad Prism software. The fold increase in luminescence signal for cells treated with each concentration of compound relative to cells treated with vehicle was determined and a dose-response curve was generated. The dose-response curve was fit using nonlinear regression analysis and used to extrapolate the EC2X value. The EC2X value is defined as the concentration of test compound required to increase the luminescence signal 2-fold above levels in vehicle-treated samples.

[2] = tested on: IFNγ-induced NO production in RAW 264.7 cells; experiment: Nitric Oxide Suppression Assay (IFNγ-induced NO, Griess nitrite readout); type: cell-based, mouse; details: for IC50: Mus musculus; for Avg NO IC50 Relative to RTA402 (fold): Table 2, ratio to RTA402
Method: Tissue Culture: RAW 264.7, a mouse macrophage cell line, was obtained from American Type Culture Collection (Manassas VA) and maintained in the log phase of growth in Roswell Park Memorial Institute Medium 1640 (RPMI 1640) supplemented with 10% heat inactivated fetal bovine serum and 1% penicillin-streptomycin. Cells were cultured and maintained in a humidified incubator at 37° C. under 5% C02. Cells were sub-cultured every 2-4 days. All cell culture supplies were obtained from Life Technologies (Grand Island, NY) and VWR (Radnor, PA).
Nitric Oxide Suppression Assay. RAW 264.7 cells were plated 1 day in advance of experimental treatments at a concentration of 30,000 cells per well onto Falcon-96 well clear bottom plates (Corning, NY) in a total volume of 200 μL per well using RPMI 1640 supplemented with 0.5% fetal bovine serum and 1% penicillin-streptomycin. The next day, cells were pretreated with compounds serially diluted from 1000×stocks. All compounds were dissolved in dimethyl sulfoxide (DMSO) usually at 10 mM stock solutions. Compounds were subsequently diluted in DMSO and RPMI 1640. Each well received a final concentration of 0.1% DMSO. Cells were pretreated for 2 hours and incubation at 37° C., followed by treatment with 20 ng/mL of interferon gamma (R&D Systems, Minneapolis, MN) per well for 24 hours. The next day, a nitrite standard was serially diluted from 100 μM to 1.6 μM in RPMI 1640. Afterwards, 50 μL of cell culture supernatant was transferred from each well into a new Falcon-96 well clear bottom plate. Nitrite was measured as surrogate for nitric oxide using Promega's Griess Detection Kit #G2930 (Madison, WI) which involves the addition of 50 μL of the provided sulfanilamide solution to each well of the transferred cell culture supernatant and standards, followed by a 10-minute incubation at room temperature. Next, 50 μL of the provided N-1-napthylethylenediamine dihydrochloride (NED) solution was added to the sulfanilamide reaction and incubated for 10 minutes at room temperature in the dark. Afterwards, air bubbles were removed using ethanol vapor and absorbance was measured using a Spectramax M2e plate reader with a wavelength set to 525 nm. Viability was assessed using WST-1 cell proliferation reagent from Roche (Basel, Switzerland). After media was removed for the Nitric Oxide suppression assay, 15 μL of WST-1 reagent was added to each well of cells. Plates were briefly mixed on an orbital shaker and the cells were incubated at 37° C. for 30-90 minutes. Absorbance was measured using a Spectramax M2e plate reader with wavelengths set to 440 nm and 700 nm.
For the ability of compounds to suppress the increase in nitric oxide release caused by interferon gamma, the absolute amount of nitrite that was produced in each well was extrapolated from the nitrite standards using a linear regression fit. All values were then normalized to the DMSO-interferon gamma treated wells and plotted as percent nitric oxide. IC50 values were calculated using Excel and/or GraphPad Prism (San Diego, CA).

[3] = Table 2, concentration increasing luminescence 2-fold above vehicle, 19 h treatment, read-out: Avg AREc32 EC2X (nM) (Mean ± SD)
[4] = RAW264.7, Table 2, RAW 264.7 cells, 2 h pretreatment, 20 ng/mL interferon gamma 24 h, read-out: Avg NO IC50 (nM) (Mean ± SD)
[5] = Table 3, ursolic acid derivatives, read-out: Avg ARE EC-2X (nM) (Mean ± SD)
[6] = RAW264.7, Table 3, ursolic acid derivatives, read-out: Avg NO IC50 (nM) (Mean ± SD)
[7] = Table 3, oleanolic acid derivative analogs, read-out: Avg ARE EC-2X
[8] = RAW264.7, Table 3, oleanolic acid derivative analogs, read-out: Avg NO IC50

## C[C@@H]1[C@H]2[C@H]3C(=O)C=C4[C@@]5(C)C=C(C#N)C(=O)C(C)(C)[C@@H]5CC[C@@]4(C)[C@]3(C)CC[C@@]2(CC(=O)NC2CC2)CC[C@H]1C [Compound T92]
[1]; [3]
  EC (2-fold): 4.33 ± 0.75 nM
[1]; Table 2
  Relative Avg AREc32 EC2X Relative to RTA402 (fold): 0.555 ± 0.181 fold
[2]; [4]
  IC50: 5.97 ± 2.71 nM
[2]
  Avg NO IC50 Relative to RTA402 (fold): 3.68 ± 1.63 fold

## C[C@@H]1[C@H]2[C@H]3C(=O)C=C4[C@@]5(C)C=C(C#N)C(=O)C(C)(C)[C@@H]5CC[C@@]4(C)[C@]3(C)CC[C@@]2(C(=O)NCC(F)F)CC[C@H]1C [Compound T87]
[1]; [3]
  EC (2-fold): 23.6 ± 0.9 nM
[1]; Table 2
  Relative Avg AREc32 EC2X Relative to RTA402 (fold): 2.0 ± 0.1 fold
[2]; [4]
  IC50: 26.1 ± 7.6 nM
[2]
  Avg NO IC50 Relative to RTA402 (fold): 6.55 ± 2.23 fold

## C[C@@H]1[C@H]2[C@H]3C(=O)C=C4[C@@]5(C)C=C(C#N)C(=O)C(C)(C)[C@@H]5CC[C@@]4(C)[C@]3(C)CC[C@@]2(CN2CCOC2)CC[C@H]1C [Compound T42]
[1]; [3]
  EC (2-fold): 26.3 ± 6 nM
[1]; [5]
  EC (2-fold): 26.3 ± 6 nM
[1]; Table 2
  Relative Avg AREc32 EC2X Relative to RTA402 (fold): 2.43 ± 0.39 fold
[2]; [4]
  IC50: 38.2 ± 10 nM
[2]; [6]
  IC50: 38.2 ± 10 nM
[2]
  Avg NO IC50 Relative to RTA402 (fold): 14.80 ± 6.91 fold

## C[C@@H]1[C@H]2[C@H]3C(=O)C=C4[C@@]5(C)C=C(C#N)C(=O)C(C)(C)[C@@H]5CC[C@@]4(C)[C@]3(C)CC[C@@]2(NC(=O)C(C)(F)F)CC[C@H]1C [Compound T17]
[1]; [3]
  EC (2-fold): 22.9 ± 2.6 nM
[1]; Table 2
  Relative Avg AREc32 EC2X Relative to RTA402 (fold): 1.92 ± 0.74 fold
[2]; [4]
  IC50: 15 ± 5.8 nM
[2]
  Avg NO IC50 Relative to RTA402 (fold): 5.83 ± 1.26 fold

## CC1(C)CC[C@]2(CN)CC[C@]3(C)[C@H](C(=O)C=C4[C@@]5(C)C=C(C#N)C(=O)C(C)(C)[C@@H]5CC[C@]43C)[C@@H]2C1 [CC21, reference compound]
[1]; [7]
  EC (2-fold): 15.8 nM
[2]; [8]
  IC50: 3.2 nM

## C[C@@H]1[C@H]2[C@H]3C(=O)C=C4[C@@]5(C)C=C(C#N)C(=O)C(C)(C)[C@@H]5CC[C@@]4(C)[C@]3(C)CC[C@@]2(c2nc(CN(C)C)no2)CC[C@H]1C [Compound T8]
[1]; [3]
  EC (2-fold): 3.72 ± 0.97 nM
[1]; [5]
  EC (2-fold): 3.72 ± 0.97 nM
[1]; Table 2
  Relative Avg AREc32 EC2X Relative to RTA402 (fold): 0.321 ± 0.059 fold
[2]; [4]
  IC50: 3.33 ± 0.68 nM
[2]; [6]
  IC50: 3.33 ± 0.68 nM
[2]
  Avg NO IC50 Relative to RTA402 (fold): 1.59 ± 0.20 fold

## C[C@@H]1[C@H]2[C@H]3C(=O)C=C4[C@@]5(C)C=C(C#N)C(=O)C(C)(C)[C@@H]5CC[C@@]4(C)[C@]3(C)CC[C@@]2(N2CCC2=O)CC[C@H]1C [Compound T74]
[1]; [3]
  EC (2-fold): 20 ± 2 nM
[1]; [5]
  EC (2-fold): 20 ± 2 nM
[1]; Table 2
  Relative Avg AREc32 EC2X Relative to RTA402 (fold): 1.67 ± 0.13 fold
[2]; [4]
  IC50: 21 ± 7.6 nM
[2]; [6]
  IC50: 21 ± 7.6 nM
[2]
  Avg NO IC50 Relative to RTA402 (fold): 5.91 ± 0.94 fold

## CN1CCN(C[C@]23CCC(C)(C)C[C@H]2[C@H]2C(=O)C=C4[C@@]5(C)C=C(C#N)C(=O)C(C)(C)[C@@H]5CC[C@@]4(C)[C@]2(C)CC3)C1=O [CC44, reference compound]
[1]; [7]
  EC (2-fold): 6.07 nM
[2]; [8]
  IC50: 1.2 nM

## CNC(=O)CC[C@]12CC[C@@H](C)[C@H](C)[C@H]1[C@H]1C(=O)C[C@@H]3[C@@]4(C)C=C(C#N)C(=O)C(C)(C)[C@@H]4CC[C@@]3(C)[C@]1(C)CC2 [Compound T104]
[1]; [3]
  EC (2-fold): 29.5 ± 2.5 nM
[1]; Table 2
  Relative Avg AREc32 EC2X Relative to RTA402 (fold): 3.15 ± 0.64 fold
[2]; [4]
  IC50: 19.1 ± 4.9 nM
[2]
  Avg NO IC50 Relative to RTA402 (fold): 12.6 ± 1.9 fold

## CC(=O)N(C)C[C@]12CC[C@@H](C)[C@H](C)[C@H]1[C@H]1C(=O)C=C3[C@@]4(C)C=C(C#N)C(=O)C(C)(C)[C@@H]4CC[C@@]3(C)[C@]1(C)CC2 [Compound T35]
[1]; [3]
  EC (2-fold): 5.05 ± 1.1 nM
[1]; [5]
  EC (2-fold): 5.05 ± 1.1 nM
[1]; Table 2
  Relative Avg AREc32 EC2X Relative to RTA402 (fold): 0.442 ± 0.136 fold
[2]; [4]
  IC50: 5.57 ± 2 nM
[2]; [6]
  IC50: 5.57 ± 2 nM
[2]
  Avg NO IC50 Relative to RTA402 (fold): 1.66 ± 0.32 fold

## CN(C)Cc1noc([C@]23CCC(C)(C)C[C@H]2[C@H]2C(=O)C=C4[C@@]5(C)C=C(C#N)C(=O)C(C)(C)[C@@H]5CC[C@@]4(C)[C@]2(C)CC3)n1 [CC8, reference compound]
[1]; [7]
  EC (2-fold): 3.72 nM
[2]; [8]
  IC50: 3.3 nM

## C[C@H]1[C@H](C)CC[C@]2(Cn3cncn3)CC[C@]3(C)C(O)(C(=O)C=C4[C@@]5(C)C=C(C#N)C(=O)C(C)(C)[C@@H]5CC[C@]43C)[C@H]12 (some centres unmarked) [Compound T48]
[1]; [3]
  EC (2-fold): 7.18 ± 1.2 nM
[1]; Table 2
  Relative Avg AREc32 EC2X Relative to RTA402 (fold): 0.602 ± 0.010 fold
[2]; [4]
  IC50: 13.8 ± 1.5 nM
[2]
  Avg NO IC50 Relative to RTA402 (fold): 3.66 ± 1.49 fold

## C[C@@H]1[C@H]2[C@H]3C(=O)C=C4[C@@]5(C)C=C(C#N)C(=O)C(C)(C)[C@@H]5CC[C@@]4(C)[C@]3(C)CC[C@@]2(CN2CCC2=O)CC[C@H]1C [Compound T14]
[1]; [3]
  EC (2-fold): 3.91 ± 0.52 nM
[1]; [5]
  EC (2-fold): 3.91 ± 0.52 nM
[1]; Table 2
  Relative Avg AREc32 EC2X Relative to RTA402 (fold): 0.349 ± 0.018 fold
[2]; [4]
  IC50: 2.4 ± 1.2 nM
[2]; [6]
  IC50: 2.4 ± 1.2 nM
[2]
  Avg NO IC50 Relative to RTA402 (fold): 1.27 ± 0.31 fold

## C[C@@H]1[C@H]2[C@H]3C(=O)C=C4[C@@]5(C)C=C(C#N)C(=O)C(C)(C)[C@@H]5CC[C@@]4(C)[C@]3(C)CC[C@@]2(CNCCO)CC[C@H]1C [Compound T40]
[1]; [3]
  EC (2-fold): 16.1 ± 1.5 nM
[1]; [5]
  EC (2-fold): 16.1 ± 1.5 nM
[1]; Table 2
  Relative Avg AREc32 EC2X Relative to RTA402 (fold): 1.2 ± 0.2 fold
[2]; [4]
  IC50: 25.8 ± 9.3 nM
[2]; [6]
  IC50: 25.8 ± 9.3 nM
[2]
  Avg NO IC50 Relative to RTA402 (fold): 9.8 ± 5.7 fold
